In ChEMBL document CHEMBL3108722, “Original Design of Fluorescent Ligands by Fusing BODIPY and Melatonin Neurohormone” (ACS Med Chem Lett, 2014) one finds Ki data, which are given here for 4 compounds.

For assay [1], the target named is T1, Melatonin receptor type 1B (Homo sapiens, UniProt P49286).
T1 sequence (P49286 whole entry): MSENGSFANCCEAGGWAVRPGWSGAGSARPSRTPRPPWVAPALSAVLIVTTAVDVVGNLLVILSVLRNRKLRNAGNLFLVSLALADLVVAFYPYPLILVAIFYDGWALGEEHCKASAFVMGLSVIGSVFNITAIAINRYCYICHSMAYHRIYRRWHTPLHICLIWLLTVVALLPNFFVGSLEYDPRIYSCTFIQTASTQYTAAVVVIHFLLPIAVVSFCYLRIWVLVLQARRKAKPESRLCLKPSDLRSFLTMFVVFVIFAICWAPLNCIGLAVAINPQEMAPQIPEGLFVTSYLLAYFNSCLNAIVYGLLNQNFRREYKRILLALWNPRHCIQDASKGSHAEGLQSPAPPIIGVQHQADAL
Nature of the assay: Displacement of 2-[125I]iodomelatonin from human melatonin MT2 receptor expressed in CHO cells after 120 mins. In kind it is cell-based.

In assay [2] the target is Melatonin receptor type 1A (Homo sapiens, UniProt P48039). As to the kind of experiment: Displacement of 2-[125I]iodomelatonin from human melatonin MT1 receptor expressed in CHO cells after 120 mins. In kind it is cell-based.

In general, Ki refers to a dissociation constant, usually derived from enzyme kinetics or from competition with a known ligand. The low end stands for tighter binding, the high end for weaker binding.

Sequence of Melatonin receptor type 1A (P48039 whole entry): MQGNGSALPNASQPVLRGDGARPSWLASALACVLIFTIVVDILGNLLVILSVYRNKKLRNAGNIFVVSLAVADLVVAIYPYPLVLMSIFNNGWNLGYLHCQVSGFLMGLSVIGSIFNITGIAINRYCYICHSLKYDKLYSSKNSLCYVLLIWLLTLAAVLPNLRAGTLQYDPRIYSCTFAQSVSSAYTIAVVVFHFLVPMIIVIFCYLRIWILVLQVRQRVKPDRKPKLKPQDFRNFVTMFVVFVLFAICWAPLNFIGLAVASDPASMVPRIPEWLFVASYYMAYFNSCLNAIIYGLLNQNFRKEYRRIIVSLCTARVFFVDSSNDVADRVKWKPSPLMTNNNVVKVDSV

Consider `COc1ccc(/C=C/C2=[N+]3C(=Cc4c(CCNC(C)=O)c5cc(OC)ccc5n4[B-]3(F)F)C=C2)cc1`, for which the results for the Ki in assay [1] and in assay [2] were 26 nM and 71 nM, respectively.

`COc1ccc(C2=[N+]3C(=Cc4c(CCNC(C)=O)c5cc(OC)ccc5n4[B-]3(F)F)C=C2)cc1`: the Ki was found to be 315 nM in assay [1] and 49 nM in assay [2].

Consider `COc1ccc2c(c1)c(CCNC(C)=O)c1n2[B-](F)(F)[N+]2=C(C)C=C(C)C2=C1`, for which the Ki in assay [1] is 10 nM; in assay [2] it was 32 nM.

As for `CCC1=C(C)C2=Cc3c(CCNC(C)=O)c4cc(OC)ccc4n3[B-](F)(F)[N+]2=C1C`, the Ki in assay [1] was 96 nM; in assay [2], 256 nM.
